Tests used:
Assay type in all cases: functional
SF-539 = experiment: Growth inhibition of human SF539 cells at 10^-5 M incubated for 48 hrs by sulforhodamine B assay; details: SF-539, 48 h, read-out: GI
HOP-92 = experiment: Growth inhibition of human HOP92 cells at 10^-5 M incubated for 48 hrs by sulforhodamine B assay; details: HOP-92, 48 h, read-out: GI
OVCAR-8 = experiment: Growth inhibition of human OVCAR8 cells at 10^-5 M incubated for 48 hrs by sulforhodamine B assay; details: OVCAR-8, 48 h, read-out: GI
SK-OV-3 = experiment: Growth inhibition of human SKOV3 cells at 10^-5 M incubated for 48 hrs by sulforhodamine B assay; details: SK-OV-3, 48 h, read-out: GI
SK-MEL-5 = experiment: Growth inhibition of human SK-MEL-5 cells at 10^-5 M incubated for 48 hrs by sulforhodamine B assay; details: SK-MEL-5, 48 h, read-out: GI
A549 = experiment: Growth inhibition of human A549/ATCC cells at 10^-5 M incubated for 48 hrs by sulforhodamine B assay; details: A549, 48 h, read-out: GI
CCRF-CEM = experiment: Growth inhibition of human CCRF-CEM cells at 10^-5 M incubated for 48 hrs by sulforhodamine B assay; details: read-out: GI
KM12 = experiment: Growth inhibition of human KM12 cells at 10^-5 M incubated for 48 hrs by sulforhodamine B assay; details: KM12, 48 h, read-out: GI
PC-3 = experiment: Growth inhibition of human PC3 cells at 10^-5 M incubated for 48 hrs by sulforhodamine B assay; details: PC-3, 48 h, read-out: GI
NCI/ADR-RES = experiment: Growth inhibition of human NCI/ADR-RES cells at 10^-5 M incubated for 48 hrs by sulforhodamine B assay; details: read-out: GI
TK-10 = experiment: Growth inhibition of human TK10 cells at 10^-5 M incubated for 48 hrs by sulforhodamine B assay; details: TK-10, 48 h, read-out: GI
K562 = experiment: Growth inhibition of human K562 cells at 10^-5 M incubated for 48 hrs by sulforhodamine B assay; details: K562, 48 h, read-out: GI
U-251 = experiment: Growth inhibition of human U251 cells at 10^-5 M incubated for 48 hrs by sulforhodamine B assay; details: U-251, 48 h, read-out: GI
NCI-H322M = experiment: Growth inhibition of human NCI-H322M cells at 10^-5 M incubated for 48 hrs by sulforhodamine B assay; details: read-out: GI
SF-295 = experiment: Growth inhibition of human SF295 cells at 10^-5 M incubated for 48 hrs by sulforhodamine B assay; details: SF-295, 48 h, read-out: GI
MDA-MB-435 = experiment: Growth inhibition of human MDA-MB-435 cells at 10^-5 M incubated for 48 hrs by sulforhodamine B assay; details: MDA-MB-435, 48 h, read-out: GI
Hs-578T = experiment: Growth inhibition of human Hs 578T cells at 10^-5 M incubated for 48 hrs by sulforhodamine B assay; details: read-out: GI
OVCAR-3 = experiment: Growth inhibition of human OVCAR3 cells at 10^-5 M incubated for 48 hrs by sulforhodamine B assay; details: OVCAR-3, 48 h, read-out: GI
IGROV-1 = experiment: Growth inhibition of human IGROV1 cells at 10^-5 M incubated for 48 hrs by sulforhodamine B assay; details: IGROV-1, 48 h, read-out: GI
A498 = experiment: Growth inhibition of human A498 cells at 10^-5 M incubated for 48 hrs by sulforhodamine B assay; details: A498, 48 h, read-out: GI
SW-620 = experiment: Growth inhibition of human SW620 cells at 10^-5 M incubated for 48 hrs by sulforhodamine B assay; details: SW-620, 48 h, read-out: GI
T47D = experiment: Growth inhibition of human T47D cells at 10^-5 M incubated for 48 hrs by sulforhodamine B assay; details: read-out: GI
SNB-19 = experiment: Growth inhibition of human SNB19 cells at 10^-5 M incubated for 48 hrs by sulforhodamine B assay; details: SNB-19, 48 h, read-out: GI
SNB-75 = experiment: Growth inhibition of human SNB75 cells at 10^-5 M incubated for 48 hrs by sulforhodamine B assay; details: SNB-75, 48 h, read-out: GI
HCT-15 = experiment: Growth inhibition of human HCT15 cells at 10^-5 M incubated for 48 hrs by sulforhodamine B assay; details: HCT-15, 48 h, read-out: GI
NCI-H522 = experiment: Growth inhibition of human NCI-H522 cells at 10^-5 M incubated for 48 hrs by sulforhodamine B assay; details: NCI-H522, 48 h, read-out: GI
COLO 205 = experiment: Growth inhibition of human COLO205 cells at 10^-5 M incubated for 48 hrs by sulforhodamine B assay; details: COLO 205, 48 h, read-out: GI
LOX IMVI = experiment: Growth inhibition of human LOXIMVI cells at 10^-5 M incubated for 48 hrs by sulforhodamine B assay; details: read-out: GI
M14 = experiment: Growth inhibition of human M14 cells at 10^-5 M incubated for 48 hrs by sulforhodamine B assay; details: M14, 48 h, read-out: GI
HCT-116 = experiment: Growth inhibition of human HCT116 cells at 10^-5 M incubated for 48 hrs by sulforhodamine B assay; details: HCT-116, 48 h, read-out: GI
NCI-H460 = experiment: Growth inhibition of human NCI-H460 cells at 10^-5 M incubated for 48 hrs by sulforhodamine B assay; details: NCI-H460, 48 h, read-out: GI
OVCAR-4 = experiment: Growth inhibition of human OVCAR4 cells at 10^-5 M incubated for 48 hrs by sulforhodamine B assay; details: OVCAR-4, 48 h, read-out: GI
SF-268 = experiment: Growth inhibition of human SF268 cells at 10^-5 M incubated for 48 hrs by sulforhodamine B assay; details: SF-268, 48 h, read-out: GI
SK-MEL-2 = experiment: Growth inhibition of human SK-MEL-2 cells at 10^-5 M incubated for 48 hrs by sulforhodamine B assay; details: SK-MEL-2, 48 h, read-out: GI
EKVX = experiment: Growth inhibition of human EKVX cells at 10^-5 M incubated for 48 hrs by sulforhodamine B assay; details: read-out: GI
NCI-H23 = experiment: Growth inhibition of human NCI-H23 cells at 10^-5 M incubated for 48 hrs by sulforhodamine B assay; details: NCI-H23, 48 h, read-out: GI
ACHN = experiment: Growth inhibition of human ACHN cells at 10^-5 M incubated for 48 hrs by sulforhodamine B assay; details: read-out: GI
SN12C = experiment: Growth inhibition of human SN12C cells at 10^-5 M incubated for 48 hrs by sulforhodamine B assay; details: read-out: GI
Malme-3M = experiment: Growth inhibition of human MALME-3M cells at 10^-5 M incubated for 48 hrs by sulforhodamine B assay; details: read-out: GI

Row | Structure (SMILES) | inhibition of growth at 10 µM (SF-539) [%] | inhibition of growth at 10 µM (HOP-92) [%] | inhibition of growth at 10 µM (OVCAR-8) [%] | inhibition of growth at 10 µM (SK-OV-3) [%] | inhibition of growth at 10 µM (SK-MEL-5) [%] | inhibition of growth at 10 µM (A549) [%] | inhibition of growth at 10 µM (CCRF-CEM) [%] | inhibition of growth at 10 µM (KM12) [%] | inhibition of growth at 10 µM (PC-3) [%] | inhibition of growth at 10 µM (NCI/ADR-RES) [%] | inhibition of growth at 10 µM (TK-10) [%] | inhibition of growth at 10 µM (K562) [%] | inhibition of growth at 10 µM (U-251) [%] | inhibition of growth at 10 µM (NCI-H322M) [%] | inhibition of growth at 10 µM (SF-295) [%] | inhibition of growth at 10 µM (MDA-MB-435) [%] | inhibition of growth at 10 µM (Hs-578T) [%] | inhibition of growth at 10 µM (OVCAR-3) [%] | inhibition of growth at 10 µM (IGROV-1) [%] | inhibition of growth at 10 µM (A498) [%] | further results
1 | O=C1Nc2c(sc3ccc(Cl)cc23)C(c2cccc(Br)c2)N1 (stereo not drawn) | -0.96 | 0.42 | -2.63 | 19.7 | 3.66 | 5.34 | -14.4 | -0.31 | 0.46 | 12.2 | -23.4 | 6.28 | -3.91 | 5.33 | -0.96 | -5.37 | -5.56 | 6.24 | 20.8 | -8.2 | inhibition of growth at 10 µM (SW-620): -0.2%; inhibition of growth at 10 µM (T47D): 13%; inhibition of growth at 10 µM (SNB-19): 0.22%; inhibition of growth at 10 µM (SNB-75): 15.2%; inhibition of growth at 10 µM (HCT-15): -0.85%; inhibition of growth at 10 µM (NCI-H522): -0.2%; inhibition of growth at 10 µM (COLO 205): -4.67%; inhibition of growth at 10 µM (LOX IMVI): -3.37%; inhibition of growth at 10 µM (M14): 1.96%; inhibition of growth at 10 µM (HCT-116): 4.12%; inhibition of growth at 10 µM (NCI-H460): -0.32%; inhibition of growth at 10 µM (OVCAR-4): -6.24%; inhibition of growth at 10 µM (SF-268): 0.19%; inhibition of growth at 10 µM (SK-MEL-2): -9.69%; inhibition of growth at 10 µM (EKVX): 7.46%; inhibition of growth at 10 µM (NCI-H23): 9.39%; inhibition of growth at 10 µM (ACHN): 5.37%; inhibition of growth at 10 µM (SN12C): 2.71%; inhibition of growth at 10 µM (Malme-3M): 2.75%
2 | O=[N+]([O-])c1cccc(C2NC(=S)Nc3c2sc2ccc(Cl)cc32)c1 (stereo not drawn) | 5.63 | 6.43 | 4.42 | 10.5 | 4.44 | 2.45 | -11.8 | 1.91 | 15.4 | -1.46 | -6.1 | 10.6 | 4.4 | 6.48 | 5.63 | -3.92 | 11.4 | 7.97 | 27.5 | 19.7 | inhibition of growth at 10 µM (SW-620): -0.61%; inhibition of growth at 10 µM (T47D): 30.9%; inhibition of growth at 10 µM (SNB-19): 8.69%; inhibition of growth at 10 µM (SNB-75): 24.4%; inhibition of growth at 10 µM (HCT-15): -0.11%; inhibition of growth at 10 µM (NCI-H522): 13.7%; inhibition of growth at 10 µM (COLO 205): -3.44%; inhibition of growth at 10 µM (LOX IMVI): 7.83%; inhibition of growth at 10 µM (M14): 2.86%; inhibition of growth at 10 µM (HCT-116): 13.4%; inhibition of growth at 10 µM (NCI-H460): 11.4%; inhibition of growth at 10 µM (OVCAR-4): 8.46%; inhibition of growth at 10 µM (SF-268): 4.17%; inhibition of growth at 10 µM (SK-MEL-2): -9.95%; inhibition of growth at 10 µM (EKVX): 26.5%; inhibition of growth at 10 µM (NCI-H23): 14.5%; inhibition of growth at 10 µM (ACHN): 13%; inhibition of growth at 10 µM (SN12C): 7.47%; inhibition of growth at 10 µM (Malme-3M): 17.3%
